One assay deals with T1, Metabotropic glutamate receptor 1 (Homo sapiens, UniProt Q13255). Briefly: Effective concentration for half maximal stimulation of PI hydrolysis (mGluR1a).
T1 sequence (Q13255 whole entry): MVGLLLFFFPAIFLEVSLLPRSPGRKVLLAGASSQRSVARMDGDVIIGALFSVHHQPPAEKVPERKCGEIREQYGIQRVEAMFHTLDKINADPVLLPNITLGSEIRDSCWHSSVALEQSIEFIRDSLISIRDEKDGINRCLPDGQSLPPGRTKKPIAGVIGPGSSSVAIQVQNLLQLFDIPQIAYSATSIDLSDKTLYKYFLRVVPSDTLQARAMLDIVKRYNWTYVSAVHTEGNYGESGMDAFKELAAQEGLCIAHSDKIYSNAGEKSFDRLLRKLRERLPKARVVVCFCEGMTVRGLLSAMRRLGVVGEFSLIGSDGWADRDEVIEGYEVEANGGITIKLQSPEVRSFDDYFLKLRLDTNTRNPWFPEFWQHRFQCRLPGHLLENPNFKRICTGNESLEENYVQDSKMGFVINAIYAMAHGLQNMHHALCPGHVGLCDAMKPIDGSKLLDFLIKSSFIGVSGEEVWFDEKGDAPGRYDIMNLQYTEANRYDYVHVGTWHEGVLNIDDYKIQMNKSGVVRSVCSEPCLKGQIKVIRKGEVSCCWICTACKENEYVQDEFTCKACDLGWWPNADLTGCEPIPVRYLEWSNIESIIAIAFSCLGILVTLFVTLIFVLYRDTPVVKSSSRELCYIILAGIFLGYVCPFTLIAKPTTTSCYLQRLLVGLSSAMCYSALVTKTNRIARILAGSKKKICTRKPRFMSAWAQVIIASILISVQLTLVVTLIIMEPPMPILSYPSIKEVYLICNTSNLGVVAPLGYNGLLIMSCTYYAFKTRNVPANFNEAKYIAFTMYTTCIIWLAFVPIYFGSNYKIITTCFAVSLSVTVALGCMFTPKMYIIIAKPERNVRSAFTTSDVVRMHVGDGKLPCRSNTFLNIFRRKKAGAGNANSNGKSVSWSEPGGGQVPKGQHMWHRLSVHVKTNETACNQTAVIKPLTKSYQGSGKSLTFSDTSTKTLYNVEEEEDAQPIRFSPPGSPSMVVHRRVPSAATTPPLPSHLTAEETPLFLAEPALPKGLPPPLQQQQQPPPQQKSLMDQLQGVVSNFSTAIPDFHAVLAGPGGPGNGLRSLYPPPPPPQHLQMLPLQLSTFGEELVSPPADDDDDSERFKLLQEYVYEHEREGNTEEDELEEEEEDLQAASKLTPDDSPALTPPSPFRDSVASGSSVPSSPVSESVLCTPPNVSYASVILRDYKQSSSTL
One may read the EC50 as the midpoint of the concentration-response curve. A higher EC50 goes with lower potency in that assay. Compound `N[C@H](C(=O)O)c1cc(=O)[nH]o1` [IBOTENIC ACID] came in with an EC50 of 6 µM.

As for `N[C@H](C(=O)O)c1cccc(O)c1`, the EC50 is 68 µM.

The target in another assay is T1, Metabotropic glutamate receptor 1. Nature of the assay: Inhibitory concentration for half maximal inhibition of PI hydrolysis (mGluR1a).
As usually defined, the IC50 is the concentration that inhibits the measured activity by half. With `N[C@H](C(=O)O)c1ccc(O)c(C(=O)O)c1`, it took 290 µM to reach half-maximal inhibition (IC50).

`N[C@H](C(=O)O)c1ccc(C(=O)O)cc1` yielded an IC50 of 65 µM.

`NC1(C(=O)O)CCc2cc(C(=O)O)ccc21` (stereo unspecified) had a concentration for half-maximal inhibition (IC50) of 214 µM.

Consider `N[C@H](C(=O)O)c1ccc(C(=O)O)c(O)c1`, for which the IC50 amounted to 40 µM.
